Assay results from patent US20260297081A1, “COMPOUNDS AND METHODS OF TREATING CANCERS” (Cullgen Inc., priority 2023, published 2026).

Columns and labels:
Format in all cases: cell-based
[1] = system: Calu-1 cells; experiment: Anti-proliferation (viability) of NSCLC Calu-1 cells, 3 days (Table 7, FIG. 2B); conditions: Homo sapiens, 72 h; Calu-1 cells, 3 days, 10-point serial dilution; read-out: GI IC50 in Calu-1
Method in brief: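 Heterobifunctional compounds are tested in 10-point serial dilutions on Calu-1 (3-day exposure) and T47D (6-day exposure) cells.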

[2] = system: T47D cells; experiment: Anti-proliferation (viability) of ER+ breast cancer T47D cells, 6 days (Table 7, FIG. 2B); conditions: Homo sapiens, 144 h; T47D cells, 6 days, 10-point serial dilution; read-out: GI IC50 in T47D
Experimental: To evaluate anti-proliferation activities of heterobifunctional compounds, NSCLC Calu-1 or ER+ breast cancer T47D cells were treated with selected heterobifunctional compounds following a 10-point serial dilution for 3 or 6 days, respectively.
To verify that heterobifunctional compound-mediated degradation is dependent on the binding to CDK4-cyclin D complex, a negative control compound, CPD-143, which is derived from active heterobifunctional compound CPD-10 was designed. CPD-143 bears the same DDB1 ligand and linker as CPD-10 but with a modified warhead to impair the binding of the control compound to CDK4.

[3] = target: T1, CDK4 (Homo sapiens, UniProt P11802+Q16531); experiment: CDK4 percentage degradation in Calu-1 cells (Table 6); set-up: Cells that express cyclin D1-3 and CDK4/6 proteins were treated with heterobifunctional compounds; endogenous in cells; host or cells: Calu-1; conditions: 16 hours; for inhibition at 0.04 µM: 40 nM; for inhibition at 0.2 µM: 200 nM
Method in brief: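 Calu-1 cells exposed to heterobifunctional compounds at 40 nM or 200 nM for 16 h. Cyclin D1 and CDK4 levels measured by Western blot of RIPA lysates (BCA-normalised loading), bands quantified by densitometry and expressed as percentage degradation.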
Target sequence in this assay (P11802 2-303 limits assumed): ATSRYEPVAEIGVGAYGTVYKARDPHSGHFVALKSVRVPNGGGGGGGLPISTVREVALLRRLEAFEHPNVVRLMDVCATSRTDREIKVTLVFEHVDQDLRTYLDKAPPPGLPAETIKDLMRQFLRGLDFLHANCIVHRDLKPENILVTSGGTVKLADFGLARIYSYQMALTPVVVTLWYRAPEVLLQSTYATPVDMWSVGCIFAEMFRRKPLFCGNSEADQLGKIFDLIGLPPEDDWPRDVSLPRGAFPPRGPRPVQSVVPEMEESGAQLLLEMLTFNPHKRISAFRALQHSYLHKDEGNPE
Target sequence in this assay (P24385 whole entry partner): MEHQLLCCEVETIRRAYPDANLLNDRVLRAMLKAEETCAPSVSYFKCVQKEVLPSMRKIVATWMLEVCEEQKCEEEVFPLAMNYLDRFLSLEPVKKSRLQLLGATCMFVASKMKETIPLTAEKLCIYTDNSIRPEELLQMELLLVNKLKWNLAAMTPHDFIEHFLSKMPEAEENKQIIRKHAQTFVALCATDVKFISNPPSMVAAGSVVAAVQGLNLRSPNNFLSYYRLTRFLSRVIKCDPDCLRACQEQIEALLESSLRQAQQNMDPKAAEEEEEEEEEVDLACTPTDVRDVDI
Target sequence in this assay (Q16531 2-1140 limits assumed): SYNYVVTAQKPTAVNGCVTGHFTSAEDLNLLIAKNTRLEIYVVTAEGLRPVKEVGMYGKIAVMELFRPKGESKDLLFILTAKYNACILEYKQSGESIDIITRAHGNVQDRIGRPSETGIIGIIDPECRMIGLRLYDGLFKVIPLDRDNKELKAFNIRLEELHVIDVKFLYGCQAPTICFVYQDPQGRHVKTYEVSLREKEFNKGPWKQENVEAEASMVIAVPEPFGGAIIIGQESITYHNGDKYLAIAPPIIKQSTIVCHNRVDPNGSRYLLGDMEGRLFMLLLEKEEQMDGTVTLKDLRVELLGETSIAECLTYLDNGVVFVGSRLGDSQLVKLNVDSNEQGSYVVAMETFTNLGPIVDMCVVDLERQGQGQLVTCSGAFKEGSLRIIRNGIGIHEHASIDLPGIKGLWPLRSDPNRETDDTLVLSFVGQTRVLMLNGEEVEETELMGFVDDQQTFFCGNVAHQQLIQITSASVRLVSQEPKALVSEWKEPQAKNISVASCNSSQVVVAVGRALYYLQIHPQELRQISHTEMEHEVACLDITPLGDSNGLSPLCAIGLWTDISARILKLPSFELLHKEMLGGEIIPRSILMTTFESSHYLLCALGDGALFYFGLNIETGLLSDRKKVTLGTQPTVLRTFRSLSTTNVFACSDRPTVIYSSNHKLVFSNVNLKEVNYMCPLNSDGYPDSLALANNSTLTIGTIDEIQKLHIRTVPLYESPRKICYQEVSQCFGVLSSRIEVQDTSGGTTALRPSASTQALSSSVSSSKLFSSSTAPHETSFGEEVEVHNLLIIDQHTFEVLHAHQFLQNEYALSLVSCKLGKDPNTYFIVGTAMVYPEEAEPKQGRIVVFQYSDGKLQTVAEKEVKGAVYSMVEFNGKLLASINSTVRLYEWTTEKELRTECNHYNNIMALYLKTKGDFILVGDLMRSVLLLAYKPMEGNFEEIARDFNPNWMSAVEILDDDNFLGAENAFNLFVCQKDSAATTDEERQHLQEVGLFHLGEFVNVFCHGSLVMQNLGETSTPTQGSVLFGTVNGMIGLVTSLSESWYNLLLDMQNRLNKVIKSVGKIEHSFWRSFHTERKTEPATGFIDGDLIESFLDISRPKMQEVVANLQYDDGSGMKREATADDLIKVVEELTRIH

[4] = system: MCF7 cells; experiment: Anti-proliferation (viability) of MCF7 cells (Table 7, FIG. 2B); conditions: Homo sapiens, MCF7, MCF7 cells, 3-6 days, 10-point serial dilution; read-out: GI IC50 in MCF-7
[5] = target: T1, CDK4; experiment: HiBiT detection of HiBiT-tagged CDK4 protein level in MCF7 cells, 16 hours (Table 8); set-up: expressed in transfected cells; host or cells: MCF7; conditions: MCF7 cells stably expressing HiBiT tagged target proteins
Experimental: HiBiT detection system quantitatively measures total amounts of HiBiT-tagged proteins using a luminescent based method. MCF7 cells stably expressing HiBiT tagged target proteins were treated with heterobifunctional compounds at indicated concentrations for 16 hours, then lysed with Nano-Glo HiBiT Lytic detection reagents.
Target sequence in this assay (P11802 whole entry): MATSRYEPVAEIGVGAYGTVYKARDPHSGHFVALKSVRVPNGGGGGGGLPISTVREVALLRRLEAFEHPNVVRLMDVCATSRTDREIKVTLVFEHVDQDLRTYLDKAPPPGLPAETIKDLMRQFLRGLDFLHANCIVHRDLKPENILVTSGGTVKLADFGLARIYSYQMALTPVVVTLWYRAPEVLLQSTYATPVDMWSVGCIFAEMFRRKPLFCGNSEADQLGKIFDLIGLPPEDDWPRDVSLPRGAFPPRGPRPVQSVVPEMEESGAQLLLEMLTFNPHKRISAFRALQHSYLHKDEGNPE
Target sequence in this assay (P24385 whole entry partner): as the sequence (P24385 whole entry partner) above
Target sequence in this assay (Q16531 2-1140 limits assumed): as the sequence (Q16531 2-1140 limits assumed) above

SMILES | IC50 [1] [nM] | IC50 [2] [nM] | inhibition at 0.04 µM [3] [%] | inhibition at 0.2 µM [3] [%] | IC50 [4] [nM] | activity at 0.01 µM ([5]; 10 nM, read-out: % CDK4 Relative Level (10 nM)) [%] | activity at 0.1 µM ([5]; 100 nM, read-out: % CDK4 Relative Level (100 nM)) [%]
CC(=O)c1c(C)c2cnc(Nc3ccc(N4CCN(CC(=O)NCCCCCNc5nc(C#N)ccc5C(=O)Nc5ccc(N(C)C)nn5)CC4)cn3)nc2n(C2CCCC2)c1=O [CPD-28, 2-((5-(2-(4-(6-((6-Acetyl-8-cyclopentyl-5-methyl-7-oxo-7,8-dihydropyrido[2,3-d]pyrimidin-2-yl)amino)pyridin-3-yl)piperazin-1-yl)acetamido)pentyl)amino)-6-cyano-N-(6-(dimethylamino)pyridazin-3-yl)nicotinamide] | 10 to 50 | ≤ 50 | 50 to 80 | 50 to 80 |  |  | 
CNc1ccc(C(=O)Nc2ccc(N(C)C)nn2)c(NC(C)CCCCNC(=O)CN2CCN(c3ccc(Nc4ncc5c(C)c(C(C)=O)c(=O)n(C6CCCC6)c5n4)nc3)CC2)n1 (centres unmarked) [CPD-29, 2-((6-(2-(4-(6-((6-Acetyl-8-cyclopentyl-5-methyl-7-oxo-7,8-dihydropyrido[2,3-d]pyrimidin-2-yl)amino)pyridin-3-yl)piperazin-1-yl)acetamido)hexan-2-yl)amino)-N-(6-(dimethylamino)pyridazin-3-yl)-6-(methylamino)nicotinamide] | 10 to 50 | 50 to 100 | 50 to 80 | > 80 |  |  | 
CC(=O)c1c(C)c2cnc(Nc3ccc(N4CCN(CC(=O)NC5CC6(C5)CC(Nc5nc(NC(C)C)ccc5C(=O)Nc5cn(C)c(C7CC7)n5)C6)CC4)cn3)nc2n(C2CCCC2)c1=O (centres unmarked) [CPD-222, 2-((6-(2-(4-(6-((6-acetyl-8-cyclopentyl-5-methyl-7-oxo-7,8-dihydropyrido[2,3-d]pyrimidin-2-yl)amino)pyridin-3-yl)piperazin-1-yl)acetamido)spiro[3.3]heptan-2-yl)amino)-N-(2-cyclopropyl-1-methyl-1H-imidazol-4-yl)-6-(isopropylamino)nicotinamide] |  | ≤ 50 | 50 to 80 | 50 to 80 | 50 to 100 |  | 
[2H]C([2H])([2H])Nc1ccc(C(=O)Nc2cccc(C3CC3)n2)c(NC2CCN(C(=O)CN3CCN(c4ccc(Nc5ncc6c(C)c(C(C)=O)c(=O)n(C7CCCC7)c6n5)nc4)CC3)CC2)n1 [CPD-252, 2-((1-(2-(4-(6-((6-acetyl-8-cyclopentyl-5-methyl-7-oxo-7,8-dihydropyrido[2,3-d]pyrimidin-2-yl)amino)pyridin-3-yl)piperazin-1-yl)acetyl)piperidin-4-yl)amino)-N-(6-cyclopropylpyridin-2-yl)-6-((methyl-d3)amino)nicotinamide] |  | ≥ 100 |  |  |  |  | 
CC(=O)c1c(C)c2cnc(Nc3ccc(N4CCN(CC(=O)NC5CC6(C5)CC(Nc5nc(NC(C)C)ccc5C(=O)Nc5cc(C)n(C)n5)C6)CC4)cn3)nc2n(C2CCCC2)c1=O (centres unmarked) [CPD-253, 2-((6-(2-(4-(6-((6-acetyl-8-cyclopentyl-5-methyl-7-oxo-7,8-dihydropyrido[2,3-d]pyrimidin-2-yl)amino)pyridin-3-yl)piperazin-1-yl)acetamido)spiro[3.3]heptan-2-yl)amino)-N-(1,5-dimethyl-1H-pyrazol-3-yl)-6-(isopropylamino)nicotinamide] |  | ≥ 100 | < 30 | < 30 | < 50 | > 85 | 55 to 85
CNc1ccc(C(=O)Nc2cn(C)c(C3CC3)n2)c(NC2CC(CNC(=O)CN3CCN(c4ccc(Nc5ncc6c(C)c(C(C)=O)c(=O)n(C7CCCC7)c6n5)nc4)CC3)C2)n1 (centres unmarked) [CPD-254, 2-((3-((2-(4-(6-((6-acetyl-8-cyclopentyl-5-methyl-7-oxo-7,8-dihydropyrido[2,3-d]pyrimidin-2-yl)amino)pyridin-3-yl)piperazin-1-yl)acetamido)methyl)cyclobutyl)amino)-N-(2-cyclopropyl-1-methyl-1H-imidazol-4-yl)-6-(methylamino)nicotinamide] |  | ≥ 100 |  |  | > 100 |  | 
CC(=O)c1c(C)c2cnc(Nc3ccc(N4CCN(CC(=O)NCC5CC(Nc6c(C(=O)Nc7cc(C)n(C)n7)cccc6C(F)(F)F)C5)CC4)cn3)nc2n(C2CCCC2)c1=O (centres unmarked) [CPD-266, 2-((3-((2-(4-(6-((6-acetyl-8-cyclopentyl-5-methyl-7-oxo-7,8-dihydropyrido[2,3-d]pyrimidin-2-yl)amino)pyridin-3-yl)piperazin-1-yl)acetamido)methyl)cyclobutyl)amino)-N-(1,5-dimethyl-1H-pyrazol-3-yl)-3-(trifluoromethyl)benzamide] |  | ≥ 100 |  |  |  |  | 

More lines, now with the values ahead:

IC50 [1] [nM] | IC50 [2] [nM] | inhibition at 0.04 µM [3] [%] | inhibition at 0.2 µM [3] [%] | IC50 [4] [nM] | activity at 0.01 µM ([5]; 10 nM, read-out: % CDK4 Relative Level (10 nM)) [%] | activity at 0.1 µM ([5]; 100 nM, read-out: % CDK4 Relative Level (100 nM)) [%] | SMILES
10 to 50 | 50 to 100 | 50 to 80 | 50 to 80 |  |  |  | CNc1ccc(C(=O)Nc2ccc(N(C)C)nn2)c(NC2CC(CCNC(=O)N3CCN(c4ccc(Nc5ncc6c(C)c(C(C)=O)c(=O)n(C7CCCC7)c6n5)nc4)CC3)C2)n1 (centres unmarked) [CPD-35, 4-(6-((6-Acetyl-8-cyclopentyl-5-methyl-7-oxo-7,8-dihydropyrido[2,3-d]pyrimidin-2-yl)amino)pyridin-3-yl)-N-(2-(3-((3-((6-(dimethylamino)pyridazin-3-yl)carbamoyl)-6-(methylamino)pyridin-2-yl)amino)cyclobutyl)ethyl)piperazine-1-carboxamide]
 | ≥ 100 | 30 to 50 | 50 to 80 |  |  |  | CC(=O)c1c(C)c2cnc(Nc3ccc(N4CCN(CC(=O)NCC5CC(Nc6nc(C)ccc6C(=O)Nc6cc(C)n(C)n6)C5)CC4)cn3)nc2n(C2CCCC2)c1=O (centres unmarked) [CPD-209, 2-((3-((2-(4-(6-((6-acetyl-8-cyclopentyl-5-methyl-7-oxo-7,8-dihydropyrido[2,3-d]pyrimidin-2-yl)amino)pyridin-3-yl)piperazin-1-yl)acetamido)methyl)cyclobutyl)amino)-N-(1,5-dimethyl-1H-pyrazol-3-yl)-6-methylnicotinamide]
 | 50 to 100 | 50 to 80 | 50 to 80 | 50 to 100 |  |  | CNc1ccc(C(=O)Nc2ccc(N(C)C)nn2)c(NC2CCN(C(=O)CCN3CCN(c4ccc(Nc5ncc6c(C)c(C(C)=O)c(=O)n(C7CCCC7)c6n5)nc4)CC3)C2)n1 (centres unmarked) [CPD-218, 2-((1-(3-(4-(6-((6-acetyl-8-cyclopentyl-5-methyl-7-oxo-7,8-dihydropyrido[2,3-d]pyrimidin-2-yl)amino)pyridin-3-yl)piperazin-1-yl)propanoyl)pyrrolidin-3-yl)amino)-N-(6-(dimethylamino)pyridazin-3-yl)-6-(methylamino)nicotinamide]
 | 50 to 100 | 50 to 80 | 50 to 80 | 50 to 100 |  |  | CNc1ccc(C(=O)Nc2ccc(N(C)C)nn2)c(NC2CCC(NC(=O)CN3CCN(c4ccc(Nc5ncc6c(C)c(C(C)=O)c(=O)n(C7CCCC7)c6n5)nc4)CC3)C2)n1 (centres unmarked) [CPD-219, 2-((3-(2-(4-(6-((6-acetyl-8-cyclopentyl-5-methyl-7-oxo-7,8-dihydropyrido[2,3-d]pyrimidin-2-yl)amino)pyridin-3-yl)piperazin-1-yl)acetamido)cyclopentyl)amino)-N-(6-(dimethylamino)pyridazin-3-yl)-6-(methylamino)nicotinamide]
 | ≥ 100 |  |  |  |  |  | CC(=O)c1c(C)c2cnc(Nc3ccc(N4CCN(CC(=O)NCC5CC(Nc6c(F)cccc6C(=O)Nc6cc(C)n(C)n6)C5)CC4)cn3)nc2n(C2CCCC2)c1=O (centres unmarked) [CPD-265, 2-((3-((2-(4-(6-((6-acetyl-8-cyclopentyl-5-methyl-7-oxo-7,8-dihydropyrido[2,3-d]pyrimidin-2-yl)amino)pyridin-3-yl)piperazin-1-yl)acetamido)methyl)cyclobutyl)amino)-N-(1,5-dimethyl-1H-pyrazol-3-yl)-3-fluorobenzamide]
